Assay results reported in US9687470B2, “Compounds for use in the treatment of filariasis” (RHEINISCHE FRIEDRICH-WILHELMS UNIVERSITAET BONN, priority 2011, dated 2017).
Entries after “also recorded” stand apart in the source; their conditions may differ.

Legend:
[1] = Stability of corallopyronin A injection samples in PBS by analytical HPLC; assay type: physicochemical; details: samples in PBS used for injection; days 1, 14 and 28; compared with purified corallopyronin A
Protocol: To verify that the corallopyronin A was stable over the whole period of the in vivo experiment, aliquots of the samples in phosphate buffered saline (PBS, PAA Laboratories, Colbe, Germany) which were used for injection were analyzed by High performance liquid chromatography (HPLC). The conditions for the analytical HPLC runs were the same as above. […] Five weeks post infection worms were recovered from the pleural cavity by lavage with PBS. The worms were sorted by sex with the aid of a dissecting microscope and their lengths measured. 10 female worms from each treatment were individually frozen for DNA extraction.

[2] = tested on: Wolbachia of A. albopictus; experiment: Susceptibility of Wolbachia to corallopyronin A in vitro (infected C6/36 cells, qPCR 16S-rRNA/actin ratio); assay type: cell-based
Protocol: The activity of corallopyronin A against Wolbachia was tested in vitro using the Aedes albopictus C6/36 cell line infected with Wolbachia of A. albopictus.
The susceptibility of Wolbachia towards corallopyronin A was investigated as described previously (Henrichfreise, Schiefer et al., “Functional conservation of the lipid II biosynthesis pathway in the cell wall-less bacteria Chlamydia and Wolbachia: why is lipid II needed?”, (2009) Mol Microbiol, 73 (5): 913-923) with some modifications.
The A. albopictus cell line C6/36 (European Collection of Cell Cultures) infected with Wolbachia from A. albopictus B containing supernatant as described in Turner et al., J Immunol 2006, 177(2): 1240-1249 were cultured in 96-well plates by seeding each well with 1×10^4 insect cells. The cells were incubated for 9 days at 26° C. in L15 Leibovitz's medium (Invitrogen, Darmstadt, Germany) supplemented with 5% fetal calf serum (FCS, Invitrogen), 1% nonessential amino acids (PAA Laboratories, Colbe, Germany), 0.59 mg/ml tryptose phosphate broth (Sigma, Munich, Germany) and 0.01% penicillin/streptomycin (PAA Laboratories) with and without 4 μg/ml doxycycline (Merck, Darmstadt, Germany) and 1, 0.1 and 0.01 μg/ml corallopyronin A in duplicate. The medium was replaced every third day. The treated cells were harvested on day 9.
Extraction of genomic DNA was performed with the QIAamp Kit (Qiagen, Hilden, Germany) according to the instructions of the manufacturer. Depletion of Wolbachia was monitored by quantitative real-time PCR (qPCR) using the primers 16S-rRNA-Fw (5′-[…]-3′, SEQ ID NO: 1) and 16S-rRNA-Rev (5′-GTGTGGCTGATCATCCTCT-3′, SEQ ID NO: 2) which target the 16S-rRNA gene (GenBank Accession #: X61767) of Wolbachia and Ac-Fw (5′-[…]-3′, SEQ ID NO: 3) and Ac-Rev (5′-[…]-3′, SEQ ID NO: 4) for actin (GenBank Accession #: DQ657949) of the C6/36 cells.
The PCR reaction mixtures were 20 μl of 1× HotStar Taq Buffer (Qiagen), 3 mM MgCl2, 0.2 mM dNTPs (PeqLab, Erlangen, Germany), 0.5 μM forward and reverse 16S-rRNA primers or 0.3 μM forward and reverse actin primers, 0.2 μl of a 1:1000 dilution in DMSO of SybrGreen (Roche, Mannheim, Germany), 0.5 units HotStar Taq polymerase and 2 μl of gDNA. […] Specific amplification was confirmed by a melting curve analysis from 72° C. to 95° C. with fluorescence acquired on the FAM channel at 1° C. intervals. The copy number of each gene was calculated using a plasmid containing the appropriate insert as standard curve. […]
Normal distribution of the data was calculated using the D′Agostino & Pearson omnibus normality test. […] Alls statistics were calculated using GraphPad Prism version 5.00 for Windows, GraphPad Software, San Diego Calif. […]

C6/36 cells = assay type: cell-based, Aedes albopictus
Wolbachia = experiment: Susceptibility of Wolbachia in vivo: depletion from L. sigmodontis worms in infected BALB/c mice (qPCR ftsZ/actin); parameters: species or system Wolbachia of Litomosoides sigmodontis in BALB/c mice
Protocol: The effect of corallopyronin A in vivo was determined in a rodent model of BALB/c mice infected with the rodent filarial worm Litomosoides sigmodontis host to Wolbachia. L. sigmodontis a well established model for human filarial worms. A key advantage of this model is the fact that administration of anti-wolbachial drugs concomitant with infection by the L. sigmodontis larvae allows for a rapid assessment of activity on the day the worms are retrieved from the infected animals.
The L. sigmodontis life cycle was maintained at the Institute for Medical Microbiology, Immunology and Parasitology as described by Al-Qaoud KM et al. (1997) “Infection of BALB/c mice with the filarial nematode Litomosoides sigmodontis: role of CD4+T cells in controlling larval development”, Infect Immun 65: 2457-2461.
Female BALB/c mice aged 6-8 weeks were purchased from Charles River, Sulzfeld, Germany. […]
To control for degradation over time, an aliquot of corallopyronin A was frozen for HPLC analysis on days 1, 14 and 28. […] The worms were sorted by sex with the aid of a dissecting microscope and their lengths measured. […]
Depletion of Wolbachia was monitored by qPCR using the primers Ls-FtsZ-Fw (5′-[…]-3′, SEQ ID NO: 5) and Ls-FtsZ-Rev (5′-TTGCAATTACTGGTGCTGC-3′, SEQ ID NO: 6) and hybridization probe (5′-6-FAM-[…]-TAMRA-3′, SEQ ID NO: 7) which target ftsZ (GenBank Accession #: AJ010271), a single copy number gene of Wolbachia. […] Cycling conditions were: 95° C. for 15 minutes followed by 35 cycles of 94° C. for 4 seconds, 58° C. for 30 seconds and 72° C. for 15 seconds with fluorescence acquired on the FAM channel as described in Arumugam S et al., Int J Parasitol 2008, 38: 981-987.
To normalize the ftsZ content of worms of different lengths, the L. sigmodontis actin gene (GenBank Accession No.: GU971367) was quantified by qPCR using the primers Ac-Fw (5′-[…]-3′, SEQ ID NO: 8) and Ac-Rev (5′-[…]-3′, SEQ ID NO: 9). […]

Litomosoides sigmodontis = experiment: Worm length (larval development) of L. sigmodontis recovered from treated BALB/c mice; assay type: in vivo, Litomosoides sigmodontis in BALB/c mice; details: worms recovered five weeks post infection
Protocol: The effect of corallopyronin A in vivo was determined in a rodent model of BALB/c mice infected with the rodent filarial worm Litomosoides sigmodontis host to Wolbachia. L. sigmodontis a well established model for human filarial worms. A key advantage of this model is the fact that administration of anti-wolbachial drugs concomitant with infection by the L. sigmodontis larvae allows for a rapid assessment of activity on the day the worms are retrieved from the infected animals. […] The L. sigmodontis life cycle was maintained at the Institute for Medical Microbiology, Immunology and Parasitology as described by Al-Qaoud KM et al. (1997) “Infection of BALB/c mice with the filarial nematode Litomosoides sigmodontis: role of CD4+T cells in controlling larval development”, Infect Immun 65: 2457-2461. Female BALB/c mice aged 6-8 weeks were purchased from Charles River, Sulzfeld, Germany. […] The worms were sorted by sex with the aid of a dissecting microscope and their lengths measured. […] Normal distribution of the data was calculated using the D′Agostino & Pearson omnibus normality test. […] Alls statistics were calculated using GraphPad Prism version 5.00 for Windows, GraphPad Software, San Diego Calif. […]

[3] = Tolerability in infected BALB/c mice; assay type: in vivo; details: 35 mg/kg/day dosage
Protocol: Female BALB/c mice aged 6-8 weeks were purchased from Charles River, Sulzfeld, Germany. The mice were infected with L. sigmodontis larvae as described in by Al-Qaoud K M et al. Beginning the day after the infection, the mice were untreated or given intra-peritoneal injections of: 10% dimethyl sulfoxide (DMSO) (vehicle control), 50 mg/kg/day doxycycline (Merck), or 35 mg/kg/day of corallopyronin A. Doxycycline was given for 14 days while corallopyronin A and 10% DMSO (vehicle control) were given for 28 days. All substances were diluted in phosphate buffered saline (PBS, PAA Laboratories).

SMILES	degradation of corallopyronin A (HPLC) [1]	depletion of Wolbachia relative to doxycycline ([2]; 1 μg/ml versus 4 μg/ml doxycycline, nine days, C6/36 cell line)	depletion of Wolbachia ([2]; beginning at 0.1 μg/ml, nine days of treatment, C6/36 cell line) [%]	anti-wolbachial effect in vitro ([2]; in vitro tests, summary statement)	dose dependence of Wolbachia depletion ([2]; nine day assay, 1, 0.1 and 0.01 μg/ml)	toxicity to cells / cell growth (C6/36 cells)	Wolbachia depletion from worms relative to doxycycline (Wolbachia; 35 mg/kg/day for 28 days versus doxycycline 50 mg/kg/day for 14 days)	depletion of the Wolbachia compared to the control (Wolbachia; BALB/c mice infected with L. sigmodontis, 35 mg/kg/day intra-peritoneal for 28 days) [%]	anti-wolbachial effect in vivo (Wolbachia; in vivo tests, summary statement)	worm length (Litomosoides sigmodontis; 35 mg/kg/day intra-peritoneal for 28 days, control worms 38 mm) [mm]	tolerability in mice [3]	visually apparent toxic effects in mice [3]	worm length (median) (Litomosoides sigmodontis; doxycycline 50 mg/kg/day intra-peritoneal for 14 days, untreated 38 mm, vehicle 34 mm) [mm]
C/C=C/C/C=C(/C)[C@H](O)CC/C(C)=C/C=C(\C)C(=O)c1c(O)cc([C@H](C)CC/C=C/NC(=O)OC)oc1=O [corallopyronin A, methyl N-[(1E)-5-[4-hydroxy-3-[(2E,4E,9Z,12E)-8-hydroxy-2,5,9-trimethyltetradeca-2,4,9,12-tetraenoyl]-2-oxo-2H-pyran-6-yl]hex-1-en-1-yl]carbamate]	no degradation	levels equivalent to 4 μg/ml of the tetracycline doxycycline; also recorded: levels equivalent to those of 4 μg/ml doxycycline	> 50	potent anti-wolbachial effect	dose dependent manner	without apparent cytotoxic effects	levels below those seen for doxycycline	> 99	potent anti-wolbachial effect	9.0	well tolerated	no toxic effects were visually apparent	
C[C@H]1c2cccc(O)c2C(=O)C2=C(O)[C@]3(O)C(=O)C(C(N)=O)=C(O)[C@@H](N(C)C)[C@@H]3[C@@H](O)[C@@H]21 [doxycycline, reference compound]													8.3
